# Data taken from PubChem BioAssay (NCI).
#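 Test compounds were applied to cells in 96-well plates for 48 hours at 5 doses. The concentration for 50% growth inhibition is given as GI50. TGI: total growth inhibition.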
# Experiments:
# Assay in all cases: DTP human tumour cell line panel, 48 h
# NCI-H23 lung = system: NCI-H23 lung
# IGROV1 ovarian = system: IGROV1 ovarian
# UO-31 renal = system: UO-31 renal
# SW-620 colon = system: SW-620 colon
# SNB-19 CNS = system: SNB-19 CNS
# SF-268 CNS = system: SF-268 CNS
# SK-MEL-2 melanoma = system: SK-MEL-2 melanoma
# MDA-MB-231 breast = system: MDA-MB-231 breast
# NCI-H522 lung = system: NCI-H522 lung
# PC-3 prostate = system: PC-3 prostate
Structure (SMILES),TGI (NCI-H23 lung) [µM],TGI (IGROV1 ovarian) [µM],TGI (UO-31 renal) [µM],TGI (SW-620 colon) [µM],TGI (SNB-19 CNS) [µM],TGI (SF-268 CNS) [µM],TGI (SK-MEL-2 melanoma) [µM],GI50 (MDA-MB-231 breast) [µM],TGI (MDA-MB-231 breast) [µM],GI50 (NCI-H23 lung) [µM],GI50 (IGROV1 ovarian) [µM],GI50 (UO-31 renal) [µM],GI50 (SW-620 colon) [µM],GI50 (NCI-H522 lung) [µM],TGI (NCI-H522 lung) [µM],GI50 (SK-MEL-2 melanoma) [µM],GI50 (SNB-19 CNS) [µM],GI50 (SF-268 CNS) [µM],TGI (PC-3 prostate) [µM],GI50 (PC-3 prostate) [µM]
Cc1ccccc1C(=O)Oc1ccc(OCc2ccccc2)cc1,> 100,> 100,> 100,> 100,> 100,> 100,–,–,–,–,–,–,–,–,–,–,–,–,–,–
CC1(C(=O)O)CCOc2ccccc21 (stereo not drawn),> 100,> 100,> 100,> 100,> 100,> 100,–,–,–,–,–,–,–,–,–,–,–,–,–,–
O=C1C(=O)N(c2nccs2)C(=O)C(=O)C1c1nc2ccccc2s1,> 100,> 100,> 100,> 100,> 100,> 100,> 100,–,–,–,–,–,–,–,–,–,–,–,–,–
CCN(CC)CCn1c2ccc(OC)cc2c2sc3cc(OC)ccc3c(=O)c21,4.34,3.61,3.02,2.41,10,5.35,4.68,1.54,3.31,1.9,1.53,1.35,0.825,1.71,4.22,2.1,2.43,1.87,–,–
O=C(Nc1ccc(Br)cc1)C(=O)C(C(=O)c1ccccc1F)C1OC(=O)c2ccccc21 (stereo not drawn),43.6,> 100,56.6,> 100,> 100,71.5,68.6,–,–,–,–,–,–,–,51.6,–,–,–,–,–
NCc1c(C(N)=O)ncn1Cc1ccccc1,> 100,> 100,–,> 100,> 100,–,–,–,–,–,–,–,–,–,–,–,–,–,–,–
COc1ccc2c(CCNC(=O)/C=C/c3ccccc3)c(C(C)=O)[nH]c2c1[N+](=O)[O-],58,56.2,> 100,> 100,> 100,9.08,> 100,–,–,–,–,–,–,–,18.9,–,–,–,–,–
O=C(N/C(=C\c1ccc(/C=C(\NC(=O)c2ccccc2)c2nc3ccccc3s2)cc1)c1nc2ccccc2s1)c1ccccc1,29.9,18.6,10.7,14.8,14.5,21.1,19.2,–,–,–,–,–,–,–,4.1,–,–,–,–,–
CC(NC(=O)C(=O)N/N=C1\C[C@@H](c2ccccc2)Nc2ccccc21)c1ccccc1 (stereo partly drawn),> 100,–,> 100,> 100,> 100,> 100,> 100,–,–,–,–,–,–,–,> 100,–,–,–,–,–
Cc1cnccc1N=Nc1ccc(N(C)C)cc1,68.6,99.6,> 100,> 100,> 100,56.5,–,–,70.6,–,–,–,–,–,–,–,–,–,97.3,–
N#Cc1ccc(Oc2cccc(Oc3ccccc3)c2)cc1C#N,> 100,> 100,61.6,> 100,> 100,> 100,> 100,–,–,–,> 100,–,–,–,> 100,–,–,–,–,–
C=C1CCCC2[C@](C)(CC3=C(O)C(=O)C=C(OC)C3=O)[C@@H](C)CC[C@]12C (stereo partly drawn),12.5,16,–,53.3,–,> 100,12.5,–,–,–,–,–,–,–,28.5,–,–,–,–,–
COC(=O)[C@H](C)NC(=O)[C@@H](OC)[C@@H]1Cc2cc3cc(OC4CC(OC5CC(O)C(O)C(C)O5)C(O)C(C)O4)c(C)c(O)c3c(O)c2C(=O)[C@H]1OC1CC(OC2CC(OC3CC(C)(O)C(O)C(C)O3)C(O)C(C)O2)C(O)C(C)O1 (stereo partly drawn),> 50,> 50,3.09,> 50,> 50,> 50,0.588,0.247,> 50,0.0939,0.05,0.182,0.116,–,–,0.0908,0.132,0.092,> 50,0.184
CCOC(=O)C(C(=O)OCC)C(=O)c1ccccc1C(=O)c1ccccc1,> 100,> 100,> 100,50.5,> 100,> 100,> 100,–,> 100,–,–,–,–,–,> 100,–,–,–,–,–
O=C(Nc1nc2ccc([N+](=O)[O-])cc2s1)C(=O)C(C(=O)c1ccncc1)C1OC(=O)c2ccccc21 (stereo not drawn),> 100,> 100,–,> 100,> 100,> 100,–,–,–,–,–,–,–,–,–,–,–,–,–,–
Fc1ccc2c(c1)C1=C(CO2)C(c2ccc(Cl)cc2)NC(=S)N1 (stereo not drawn),58.5,61,84,93.8,> 100,–,46.9,18.8,55.7,26,24.3,27.8,27.3,–,–,24.3,44.1,–,> 100,37.2
O=S(=O)(NC1=NCCN1C(=S)SN1CCn2c1nsc2=S)c1ccccc1Cl,–,> 100,> 100,77.9,> 100,87.6,40,22.5,71.1,–,34.8,26.1,10.4,6.08,21.9,16.9,41,13.3,–,–
CC(=O)OC1CCC2C(=CCC3C2(C)C(=O)CC2(C)C(C4(C)OC(C(C)C)=CC4=O)C(O)CC32C)C1(C)C (stereo not drawn),> 100,> 100,> 100,> 100,> 100,> 100,62.3,–,–,–,–,–,–,–,> 100,–,–,–,–,–
CS(=O)(=O)N(CCC#N)c1ccc(C=O)cc1,–,> 100,> 100,> 100,> 100,> 100,> 100,–,–,–,–,–,–,–,> 100,–,–,–,–,–
Cn1c(=O)c(C(=O)NC(=O)NCCCCCOC(=O)CCCCCCCCCCC(=O)OCCCCCNC(=O)NC(=O)c2cn(Cc3ccccc3)c(=O)n(C)c2=O)cn(Cc2ccccc2)c1=O,> 100,> 100,> 100,> 100,> 100,> 100,> 100,–,–,–,–,–,–,–,> 100,–,–,–,–,–
CCOC(=O)N1C(c2ccccc2)C=CC(c2ccccc2)N1C(=O)OCC (stereo not drawn),> 100,> 100,–,> 100,> 100,> 100,> 100,–,–,–,–,–,–,–,–,–,–,–,–,–
